Measured values from patent US8962626B2, “Thienopyridazine compounds, their preparations, pharmaceutical compositions and uses” (Zhejiang Medicine Co., Ltd. Xinchang Pharmaceutical Factory, priority 2008, dated 2015).
Read-outs that look alike come from different tables or passages of the source.

Columns and labels:
[1] = test system: Human ovarian cancer (A2780); experiment: Cytotoxicity in vitro, SRB and MTT methods, 72 h; format: cell-based; settings: A2780 cells, read-out: Anti-cancer Activity IC50 In vitro, A2780
Protocol: (§1) Some of the above compounds are tested in vitro and in vivo for their antitumor activities. Among these tests, the cytotoxicity is tested in vitro using SRB and MTT methods for 72 h.

[2] = test system: Human poorly differentiated gastric adenocarcinoma (BGC-823); experiment: Cytotoxicity in vitro, SRB and MTT methods, 72 h; format: cell-based; settings: BGC-823 cells, read-out: Anti-cancer Activity IC50 In vitro, BGC-823
Protocol: as §1

[3] = test system: Human colon cancer HT-29; experiment: Cytotoxicity in vitro, SRB and MTT methods, 72 h; format: cell-based; settings: HT-29 cells, read-out: Anti-cancer Activity IC50 In vitro, HT-29
Protocol: as §1

[4] = test system: Mouse lung cancer (3LL); experiment: Cytotoxicity in vitro, SRB and MTT methods, 72 h; format: cell-based; settings: 3LL cells, read-out: Anti-cancer Activity IC50 In vitro, 3LL
Protocol: as §1

[5] = test system: transplanted tumor of human colon cancer HT-99; experiment: Efficacy on transplanted tumor of human colon cancer HT-99 on nude mice; format: in vivo; settings: compounds 60 mg/kg ip d0,1, GCT 20, ADR 4 mg/kg ip, combinations GCT or CPT-11 20 / ADR 4 ip + compound 25 mg/kg iv; for RTV (relative tumor volume) X ± SD / T/C: 17th day; for TV dn: dn = 17th day after administration
[6] = test system: mouse S180 sarcoma; experiment: Growth inhibition effect on mouse S180 sarcoma; format: in vivo; settings: mouse S180, 50 mg/kg ip; for Rate of inhibition: N = 7; for Body Weight without Tumor / Ending Body Weight / Tumor Weight / Starting Body Weight: N = 7, X ± SD; for Starting Body Weight: baseline

Molecule	IC50 ([1]; Homo sapiens, A2780, 72 h) [µM]	IC50 ([2]; Homo sapiens, BGC-823, 72 h) [µM]	IC50 ([3]; Homo sapiens, HT-29, 72 h) [µM]	IC50 ([4]; Mus musculus, 3LL) [µM]	other results
2-(4-bromophenyl)-4-(3-α-thiopyranmethyl)-thieno[2,3-d]pyridazinyl-7-formamide [XXXXVI]					IC50 [1]: 30.3 µM; IC50 [2]: 11.1 µM; IC50 [3]: > 100 µM; IC50 [4]: > 100 µM
COc1cccc2c1C(=O)c1c(O)c3c(c(O)c1C2=O)C[C@@](O)(C(=O)CO)C[C@@H]3O[C@H]1C[C@H](N)[C@H](O)[C@H](C)O1 [ADR, Adriamycin]					RTV (relative tumor volume) X ± SD [5]: 4.38 ± 1.38; T/C [5]: 64%; TV dn [5]: 667 ± 67 mm^3
NC(=O)c1nnc(CC2CCCNC2)c2cc(-c3ccc(F)cc3)sc12 (stereo not drawn) [Compound I, 2-(4-fluorophenyl)-4-(3-piperidinemethyl)-thieno[2,3-d]pyridazinyl-7-formamide]	6.4	3.35	4.22	1.4	
NC(=O)c1nnc(CC2CCNC2)c2cc(-c3ccc(F)cc3)sc12 (stereo not drawn) [Compound XX, 2-(4-fluorophenyl)-4-(3-pyrrolidinemethyl)-thieno[2,3-d]pyridazinyl-7-formamide]					Rate of inhibition [6]: 37.23%; Body Weight without Tumor [6]: 19.33 ± 1.60 g; Ending Body Weight [6]: 21.19 ± 1.40 g; Tumor Weight [6]: 1.86 ± 0.26 g; Starting Body Weight [6]: 19.50 ± 0.89 g
Nc1ccn([C@@H]2O[C@H](CO)[C@@H](O)C2(F)F)c(=O)n1 [GCT, Gemcitabine]					RTV (relative tumor volume) X ± SD [5]: 1.64 ± 0.44; T/C [5]: 37%; TV dn [5]: 463 ± 74 mm^3
NC(=O)c1nnc(CC2CCNCC2)c2cc(-c3ccc(Cl)cc3)sc12 [XI, 2-(4-chlorophenyl)-4-(4-piperidinemethyl)-thieno[2,3-d]pyridazinyl-7-formamide]	11.8	9.24	10.7	8.43	
NC(=O)c1nnc(CC2CCCNC2)c2cc(-c3ccc(Cl)cc3)sc12 (stereo not drawn) [XIII, 2-(4-chlorophenyl)-4-(R-3-piperidinemethyl)-thieno[2,3-d]pyridazinyl-7-formamide]		2.62			IC50 [1]: 1.18 µM; IC50 [3]: 0.73 µM; IC50 [4]: 1.24 µM
CNC(=O)c1nnc(CC2CCCNC2)c2cc(-c3ccc(Cl)cc3)sc12 (stereo not drawn) [XIV, 2-(4-chlorophenyl)-4-(3-piperidinemethyl)-thieno[2,3-d]pyridazinyl-7-N-methyl formamide]	6.01	30.5	16.8	8.59	
CN(C)C(=O)c1nnc(CC2CCCNC2)c2cc(-c3ccc(Cl)cc3)sc12 (stereo not drawn) [XV, 2-(4-chlorophenyl)-4-(3-piperidinemethyl)-thieno[2,3-d]pyridazinyl-7-N,N-dimethyl formamide]		2.25			
NC(=O)c1nnc(CC2CCNC2)c2cc(-c3ccc(Cl)cc3)sc12 (stereo not drawn) [XXI, 2-(4-chlorophenyl)-4-(3-pyrrolidinemethyl)-thieno[2,3-d]pyridazinyl-7-formamide]			8.68		
NC(=O)c1nnc(CC2CCOC2)c2cc(-c3ccc(F)cc3)sc12 (stereo not drawn) [XXIII, 2-(4-fluorophenyl)-4-(3-tetrahydrofuranmethyl)-thieno[2,3-d]pyridazinyl-7-formamide]	> 100	> 100	5.57	> 100	
NC(=O)c1nnc(CC2CCOC2)c2cc(-c3ccc(Cl)cc3)sc12 (stereo not drawn) [XXIV, 2-(4-chlorophenyl)-4-(3-tetrahydrofuranmethyl)-thieno[2,3-d]pyridazinyl-7-formamide]					Rate of inhibition [6]: 45.45%; Body Weight without Tumor [6]: 21.56 ± 1.48 g; Ending Body Weight [6]: 23.18 ± 1.66 g; Tumor Weight [6]: 1.62 ± 0.26 g; Starting Body Weight [6]: 19.39 ± 0.60 g
NC(=O)c1nnc(CC2CCSC2)c2cc(-c3ccc(F)cc3)sc12 (stereo not drawn) [XXVI, 2-(4-fluorophenyl)-4-(3-tetrahydrothiophenemethyl)-thieno[2,3-d]pyridazinyl-7-formamide]	> 100	24.6	> 100	> 100	
CNC(=O)c1nnc(CC2CCSC2)c2cc(-c3ccc(Cl)cc3)sc12 (stereo not drawn) [XXXIV, 2-(4-chlorophenyl)-4-(3-tetrahydrothiophenemethyl)-thieno[2,3-d]pyridazinyl-7-N-methyl formamide]	> 100	74.5	> 100	50.6	
NC(=O)c1nnc(Cc2cccnc2)c2cc(-c3ccc(F)cc3)sc12 [XXXVIII, 2-(4-fluorophenyl)-4-(3-pyridinemethyl)-thieno[2,3-d]pyridazinyl-7-formamide]	3.13	8.17	1.33	3.13	
NC(=O)c1nnc(Cc2ccoc2)c2cc(-c3ccc(F)cc3)sc12 [XXXXXVIII, 2-(4-fluorophenyl)-4-(3-furanmethyl)-thieno[2,3-d]pyridazinyl-7-formamide]	13.9	16.4	21.8	21.4	
CNC(=O)c1nnc(Cc2ccoc2)c2cc(-c3ccc(Cl)cc3)sc12 [XXXXXXIX, 2-(4-chlorophenyl)-4-(3-furanmethyl)-thieno[2,3-d]pyridazinyl-7-N-methyl formamide]	7.11	17	9.48	3.31	
CN(C)C(=O)c1nnc(Cc2ccoc2)c2cc(-c3ccc(Cl)cc3)sc12 [XXXXXXX, 2-(4-chlorophenyl)-4-(3-furanmethyl)-thieno[2,3-d]pyridazinyl-7-N,N-dimethyl formamide]	> 100	5.45	> 100	> 100	
